# From patent US12545659B2, “IRAK degraders and uses thereof” (Kymera Therapeutics, Inc., priority 2019, dated 2026)
# Target: T1, IRAK4 (Homo sapiens, UniProt Q9NWZ3)
# T1 construct: endogenous in cells; host or cells: OCI-LY10
# T1 sequence (Q9NWZ3 1-460): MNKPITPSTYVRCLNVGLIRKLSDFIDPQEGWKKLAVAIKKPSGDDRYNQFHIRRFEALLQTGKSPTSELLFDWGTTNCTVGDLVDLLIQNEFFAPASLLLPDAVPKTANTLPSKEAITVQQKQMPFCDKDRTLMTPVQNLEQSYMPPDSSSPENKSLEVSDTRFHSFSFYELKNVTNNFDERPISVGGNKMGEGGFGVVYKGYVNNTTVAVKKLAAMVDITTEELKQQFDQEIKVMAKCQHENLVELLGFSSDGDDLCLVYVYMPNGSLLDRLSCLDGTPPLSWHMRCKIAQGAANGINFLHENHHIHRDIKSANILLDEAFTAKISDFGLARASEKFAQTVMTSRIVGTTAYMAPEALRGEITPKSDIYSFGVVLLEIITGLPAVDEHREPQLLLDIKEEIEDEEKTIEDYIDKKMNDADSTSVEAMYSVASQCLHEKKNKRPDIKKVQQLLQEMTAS
# Experiment: IRAK4 MSD Degradation in OCI-LY10
# Format: cell-based
# Conditions: OCI-LY10 cells, 4 hrs incubation, read-out: IRAK4 degradation in OCI-LY10 at 4 hrs: DC50
# Method in brief: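 IRAK4 remaining in lysates was read by Meso Scale electrochemiluminescence sandwich (2H9 capture, Y279 plus SULFO-TAG detection). Cells were exposed 4 to 24 h at 37 °C to eight 3-fold dilutions from 1 to 10 μM final top; three-parameter logistic fit gave DC50.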
row,SMILES,DC50
1,COc1cc2nn([C@H]3CC[C@H](CN4CCN(c5cccc6c5n(C)c(=O)n6C5CCC(=O)NC5=O)CC4)CC3)cc2cc1NC(=O)c1cccc(C(F)(F)F)n1 (stereo partly shown) [I-171],< 50 nM
2,"Cn1c(=O)n(C2CCC(=O)NC2=O)c2cccc(NC[C@H]3CC[C@H](n4cc5cc(NC(=O)c6cccc(C(F)(F)F)n6)c(C(C)(C)O)cc5n4)CC3)c21 (stereo partly shown) [I-147, N-[2-[4-[[[1-(2,6-dioxo-3-piperidyl)-3-methyl-2-oxo-benzimidazol-4-yl]amino]methyl]cyclohexyl]-6-(1-hydroxy-1-methyl-ethyl)indazol-5-yl]-6-(trifluoromethyl)pyridine-2-carboxamide]",500 to 1000 nM
3,CN(C[C@H]1CC[C@H](n2cc3cc(NC(=O)c4cccc(C(F)(F)F)n4)c(C(C)(C)O)cc3n2)CC1)C1CCN(c2cccc3c2n(C)c(=O)n3C2CCC(=O)NC2=O)CC1 (stereo partly shown) [I-80],< 50 nM
4,Cn1c(=O)n(C2CCC(=O)NC2=O)c2cccc(C[C@H]3C[C@]4(CC[C@@H](N(C)C[C@H]5CC[C@H](n6cc7cc(NC(=O)c8cccc(C(F)(F)F)n8)c(C(F)F)cc7n6)CC5)CC4)C3)c21 (stereo partly shown) [I-151],50 to 100 nM
5,Cn1c(=O)n(C2CCC(=O)NC2=O)c2cccc(CCC3CC4(CCN(C[C@H]5CC[C@H](n6cc7cc(NC(=O)c8cccc(OC(F)(F)F)n8)c(C(C)(C)O)cc7n6)CC5)CC4)C3)c21 (stereo partly shown) [I-108],50 to 100 nM
6,COc1cc2nn([C@H]3CC[C@H](CN4CCC(c5ccc6c(c5)n(C)c(=O)n6C5CCC(=O)NC5=O)CC4)CC3)cc2cc1NC(=O)c1cccc(C(C)(C)F)n1 (stereo partly shown) [I-100],< 50 nM
7,Cn1c(=O)n(C2CCC(=O)NC2=O)c2cccc(C[C@H]3CC[C@H](N(C)C[C@H]4CC[C@H](n5cc6cc(NC(=O)c7cccc(C(F)(F)F)n7)c(C(F)F)cc6n5)CC4)CC3)c21 (stereo partly shown) [I-73],50 to 100 nM
8,COc1cc2nn([C@H]3CC[C@H](CN(C)CC#Cc4cccc5c4n(C)c(=O)n5C4CCC(=O)NC4=O)CC3)cc2cc1NC(=O)c1cccc(C(F)(F)F)n1 (stereo partly shown) [I-134],50 to 100 nM
9,Cn1c(=O)n(C2CCC(=O)NC2=O)c2cccc(CN3CCOC4(CCN(Cc5ccc(-n6cc7cc(NC(=O)c8cccc(C(F)(F)F)n8)c(C(C)(C)O)cc7n6)cc5)CC4)C3)c21 (stereo not shown) [I-52],50 to 100 nM

# Other lines, results leading:
row,DC50,SMILES
1,< 50 nM,Cc1nc(C(=O)Nc2cc3cn([C@H]4CC[C@H](CN5CCC6(CC5)CC(CCc5cccc7c5n(C)c(=O)n7C5CCC(=O)NC5=O)C6)CC4)nc3cc2C(C)(C)O)ccc1F (stereo partly shown) [I-206]
2,< 50 nM,COc1cc2nn([C@H]3CC[C@H](CN4CCC(c5ccc6c(c5)n(C)c(=O)n6C5CCC(=O)NC5=O)CC4)CC3)cc2cc1NC(=O)c1cccc(C(F)(F)F)n1 (stereo partly shown) [I-262]
3,< 50 nM,Cn1c(=O)n(C2CCC(=O)NC2=O)c2cccc(N3CCN(C[C@H]4CC[C@H](n5cc6cc(NC(=O)c7cccc(C(F)(F)F)n7)c(C(F)F)cc6n5)CC4)CC3)c21 (stereo partly shown) [I-176]
4,< 50 nM,Cn1c(=O)n(C2CCC(=O)NC2=O)c2cccc(CCOC3CCN(C[C@H]4CC[C@H](n5cc6cc(NC(=O)c7cccc(C(F)(F)F)n7)c(C(C)(C)O)cc6n5)CC4)CC3)c21 (stereo partly shown) [I-267]
5,< 50 nM,Cn1c(=O)n(C2CCC(=O)NC2=O)c2cccc(C3CCN(C[C@H]4CC[C@H](n5cc6cc(NC(=O)c7cccc(C(F)(F)F)n7)c(C(C)(C)O)cc6n5)CC4)CC3)c21 (stereo partly shown) [I-226]
6,< 50 nM,CN(C[C@H]1CC[C@H](n2cc3cc(NC(=O)c4cccc(C(F)(F)F)n4)c(C(C)(C)O)cc3n2)CC1)C1CCN(Cc2ccc3c(c2)C(=O)N(C)C3C2CCC(=O)NC2=O)CC1 (stereo partly shown) [I-279]
7,< 50 nM,Cn1c(=O)n(C2CCC(=O)NC2=O)c2ccc(C3CCN(C[C@H]4CC[C@H](n5cc6cc(NC(=O)c7cccc(C(F)(F)F)n7)c(C(F)F)cc6n5)CC4)CC3)cc21 (stereo partly shown) [I-261]
8,< 50 nM,CN(C[C@H]1CC[C@H](n2cc3cc(NC(=O)c4cccc(C5CC5)n4)c(C(C)(C)O)cc3n2)CC1)C1CCN(Cc2cccc3c2n(C)c(=O)n3C2CCC(=O)NC2=O)CC1 (stereo partly shown) [I-322]
9,< 50 nM,Cn1c(=O)n(C2CCC(=O)NC2=O)c2cccc(C3CCN(C[C@H]4CC[C@H](n5cc6cc(NC(=O)c7cccc(C(F)(F)F)n7)c(C(F)F)cc6n5)CC4)CC3)c21 (stereo partly shown) [I-263]

# Same assay, conditions: OCI-LY10 cells, 24 hrs incubation, read-out: IRAK4 degradation in OCI-LY10 at 24 hrs: DC50
row,SMILES,DC50
1,COc1cc2nn([C@H]3CC[C@H](CN4CCC(O[C@H]5CC[C@H](CNc6cccc7c6C(=O)N(C6CCC(=O)NC6=O)C7=O)CC5)CC4)CC3)cc2cc1NC(=O)c1cccc(C(F)(F)F)n1 (stereo partly shown) [I-69],50 to 100 nM
2,"CN(CCCO[C@H]1C[C@H](Nc2cccc3c2C(=O)N(C2CCC(=O)NC2=O)C3=O)C1)C[C@@]1(C)Cc2cc(NC(=O)c3cnn4cccnc34)c(N3CCOCC3)cc2O1 (stereo partly drawn) [I-161, N-[(2R)-2-[[3-[3-[[2-(2,6-dioxo-3-piperidyl)-1,3-dioxo-isoindolin-4-yl]amino]cyclobutoxy]propyl-methyl-amino]methyl]-2-methyl-6-morpholino-3H-benzofuran-5-yl]pyrazolo[1,5-a]pyrimidine-3-carboxamide]",500 to 1000 nM
3,O=C1CCC(N2C(=O)c3cccc(NCCC4CC5(CCN(C[C@H]6CC[C@H](n7cc8cc(NC(=O)c9cccc(C(F)(F)F)n9)c(OC(F)F)cc8n7)CC6)CC5)C4)c3C2=O)C(=O)N1 (stereo partly shown) [I-89],50 to 100 nM
4,COc1cc2nn([C@H]3CC[C@H](CN4CCO[C@@H](CCNc5cccc6c5C(=O)N(C5CCC(=O)NC5=O)C6=O)C4)CC3)cc2cc1NC(=O)c1cccc(C(F)(F)F)n1 (stereo partly shown) [I-71],50 to 100 nM
5,CN(C[C@H]1CC[C@H](n2cc3cc(NC(=O)c4cccc(C(F)(F)F)n4)c(C(C)(C)O)cc3n2)CC1)C1CCC2(CC1)CC(CNc1cccc3c1C(=O)N(C1CCC(=O)NC1=O)C3=O)C2 (stereo partly shown) [I-32],< 50 nM
6,COc1cc2nn([C@H]3CC[C@H](CN4CCC(CO[C@H]5C[C@H](Nc6cccc7c6C(=O)N(C6CCC(=O)NC6=O)C7=O)C5)CC4)CC3)cc2cc1NC(=O)c1cccc(C(C)(C)F)n1 (stereo partly shown) [I-140],50 to 100 nM
7,CN(CCCn1cc2cc(NC(=O)c3cccc(C(F)(F)F)n3)c(C(C)(C)O)cc2n1)C1CCC2(CC1)CC(Nc1cccc3c1C(=O)N(C1CCC(=O)NC1=O)C3=O)C2 (stereo not shown) [I-79],100 to 500 nM
8,CN(CCCO[C@H]1C[C@H](Nc2cccc3c2C(=O)N(C2CCC(=O)NC2=O)C3=O)C1)C[C@H]1CC[C@H](n2cc3cc(NC(=O)Cc4cccc(C(F)(F)F)n4)c(C(C)(C)O)cc3n2)CC1 (stereo partly shown) [I-70],500 to 1000 nM
9,CN(C[C@H]1CC[C@H](n2cc3cc(NC(=O)c4cccc(C(C)(C)F)n4)c(C(C)(C)O)cc3n2)CC1)[C@H]1CC[C@H](CNc2cccc3c2C(=O)N(C2CCC(=O)NC2=O)C3=O)CC1 (stereo partly shown) [I-58],50 to 100 nM
10,CC(C)(O)COc1cc2nn([C@H]3CC[C@H](CN4CCC5(CC4)CC(CNc4cccc6c4C(=O)N(C4CCC(=O)NC4=O)C6=O)C5)CC3)cc2cc1NC(=O)c1cccc(C(F)(F)F)n1 (stereo partly shown) [I-138],50 to 100 nM

# Next, values leading:
row,DC50,SMILES
1,100 to 500 nM,O=C1CCC(N2C(=O)c3cccc(NCCC4CC5(CCN(C[C@H]6CC[C@H](c7nc8cc(N9CCC(CO)CC9)c(NC(=O)c9cccc(C(F)(F)F)n9)cc8o7)CC6)CC5)C4)c3C2=O)C(=O)N1 (stereo partly shown) [I-314]
2,50 to 100 nM,CC(C)(O)COc1cc2nn([C@H]3CC[C@H](CN4CC5(CC(CCNc6cccc7c6C(=O)N(C6CCC(=O)NC6=O)C7=O)C5)C4)CC3)cc2cc1NC(=O)c1cccc(C(C)(F)F)n1 (stereo partly shown) [I-296]
3,< 50 nM,CC(C)(O)c1cc2nn([C@H]3CC[C@H](CN4CCC(O[C@H]5C[C@H](Nc6cccc7c6C(=O)N(C6CCC(=O)NC6=O)C7=O)C5)CC4)CC3)cc2cc1NC(=O)c1cccc(C(F)(F)F)n1 (stereo partly shown) [I-312]
4,50 to 100 nM,COc1cc2nn([C@H]3CC[C@H](CN4CCC(O[C@H]5CC[C@H](CNc6cccc7c6C(=O)N(C6CCC(=O)NC6=O)C7=O)CC5)CC4)CC3)cc2cc1NC(=O)c1cccc(C(C)(C)F)n1 (stereo partly shown) [I-311]
5,50 to 100 nM,COc1c(NC(=O)c2cccc(C(C)(C)F)n2)cc2cn([C@H]3CC[C@H](CN4CC5(CC(CCNc6cccc7c6C(=O)N(C6CCC(=O)NC6=O)C7=O)C5)C4)CC3)nc2c1C (stereo partly shown) [I-315]
6,< 50 nM,"COc1cc2nn([C@H]3CC[C@H](CN4CC5(CC(CCNc6cccc7c6C(=O)N([C@@H]6CCC(=O)NC6=O)C7=O)C5)C4)CC3)cc2cc1NC(=O)c1cccc(C(C)(F)F)n1 [I-254, 6-(1,1-Difluoroethyl)-N-[2-[4-[[6-[2-[[2-[(3R)-2,6-dioxo-3-piperidyl]-1,3-dioxo-isoindolin-4-yl]amino]ethyl]-2-azaspiro[3.3]heptan-2-yl]methyl]cyclohexyl]-6-methoxy-indazol-5-yl]pyridine-2-carboxamide]"
7,50 to 100 nM,COc1cc2nn([C@H]3CC[C@H](CN4CC5(CC(CNc6cccc7c6C(=O)N(C6CCC(=O)NC6=O)C7=O)C5)C4)CC3)cc2cc1NC(=O)c1cccc(C(F)(F)F)n1 (stereo partly shown) [I-274]
8,< 50 nM,COc1cc2nn([C@H]3CC[C@H](CN4CCC5(CC4)CC(Nc4cccc6c4C(=O)N(C4CCC(=O)NC4=O)C6=O)C5)CC3)cc2cc1NC(=O)c1ccc(F)c(C)n1 (stereo partly shown) [I-224]
9,50 to 100 nM,COc1cc2nc([C@H]3CC[C@H](CN4CC5(CC(CCNc6cccc7c6C(=O)N(C6CCC(=O)NC6=O)C7=O)C5)C4)CC3)oc2cc1NC(=O)c1cccc(C(C)(F)F)n1 (stereo partly shown) [I-198]
